Source: ChEMBL document CHEMBL3885881, “DrugMatrix”

Species on record: Rattus norvegicus
Test: DrugMatrix - Regimen: Daily Repeat
Assay type: toxicity, organism-based, Sprague-Dawley
Set-up: regimen Daily Repeat, gender Male, age 6-8 weeks
Conditions: in vivo, iv, vehicle 100 % SALINE; for ABSOLUTE BASOPHIL / ABSOLUTE EOSINOPHIL / ABSOLUTE LYMPHOCYTE / ABSOLUTE MONOCYTE / ABSOLUTE SEGMENTED NEUTROPHIL / BASOPHIL / EOSINOPHIL / ERYTHROCYTE COUNT / HEMATOCRIT / HEMOGLOBIN / LEUKOCYTE COUNT / LYMPHOCYTE / MEAN CORPUSCULAR HEMOGLOBIN / MEAN CORPUSCULAR HEMOGLOBIN CONCENTRATION / MEAN CORPUSCULAR VOLUME / MONOCYTE / NEUTROPHIL / NUCLEATED RED BLOOD CELLS / PLATELET COUNT: tissue Blood; for ALANINE AMINOTRANSFERASE / ALBUMIN / ALKALINE PHOSPHATASE / ASPARTATE AMINOTRANSFERASE / BLOOD UREA NITROGEN / CARBON DIOXIDE / CHLORIDE / CHOLESTEROL / CREATINE PHOSPHOKINASE / CREATININE / GLUCOSE / LACTATE DEHYDROGENASE / LIPASE / PHOSPHORUS / POTASSIUM / SODIUM / TOTAL BILIRUBIN / TOTAL PROTEIN / URIC ACID: tissue Plasma
[1] = 0 mg/kg, 72 h, dose level Control, time 3 day
[2] = 0 mg/kg, 120 h, dose level Control, time 5 day
[3] = 200 mg/kg, 72 h, dose level Low, time 3 day

CC1(C)S[C@@H]2[C@H](NC(=O)[C@H](NC(=O)N3CCNC3=O)c3ccccc3)C(=O)N2[C@H]1C(=O)O [AZLOCILLIN]
ABSOLUTE BASOPHIL [1]: 0 CELLS/uL
ABSOLUTE EOSINOPHIL [1]: 15.33 CELLS/uL
ABSOLUTE LYMPHOCYTE [1]: 9513.5 CELLS/uL
ABSOLUTE MONOCYTE [1]: 94.67 CELLS/uL
ABSOLUTE SEGMENTED NEUTROPHIL [1]: 709.83 CELLS/uL
BASOPHIL [1]: 0%
EOSINOPHIL [1]: 0.17%
ERYTHROCYTE COUNT [1]: 5.63 x10E6/uL
HEMATOCRIT [1]: 34.63%
HEMOGLOBIN [1]: 13.6 G/DL
LEUKOCYTE COUNT [1]: 10.33 x10E3/uL
LYMPHOCYTE [1]: 92%
MEAN CORPUSCULAR HEMOGLOBIN [1]: 24.17 pg
MEAN CORPUSCULAR HEMOGLOBIN CONCENTRATION [1]: 39.28 G/DL
MEAN CORPUSCULAR VOLUME [1]: 61.57 fL
MONOCYTE [1]: 0.83%
NEUTROPHIL [1]: 7%
NUCLEATED RED BLOOD CELLS [1]: 0 /100WBC
PLATELET COUNT [1]: 903.17 x10E3/uL
ALANINE AMINOTRANSFERASE [1]: 49.33 u/L
ALBUMIN [1]: 4.27 G/DL
ALKALINE PHOSPHATASE [1]: 400.83 u/L
ASPARTATE AMINOTRANSFERASE [1]: 77.5 u/L
BLOOD UREA NITROGEN [1]: 16.33 mg/dL
CARBON DIOXIDE [1]: 29.33 mmol/L
CHLORIDE [1]: 99.67 MEQ/L
CHOLESTEROL [1]: 66.67 mg/dL
CREATINE PHOSPHOKINASE [1]: 275.33 u/L
CREATININE [1]: 0.18 mg/dL
GLUCOSE [1]: 163.83 mg/dL
LACTATE DEHYDROGENASE [1]: 125.33 u/L
LIPASE [1]: 10 u/L
PHOSPHORUS [1]: 12.12 mg/dL
POTASSIUM [1]: 6.68 MEQ/L
SODIUM [1]: 144.02 MEQ/L
TOTAL BILIRUBIN [1]: 0.18 mg/dL
TOTAL PROTEIN [1]: 5.87 G/DL
URIC ACID [1]: 1.63 mg/dL
ABSOLUTE BASOPHIL [2]: 0 CELLS/uL
ABSOLUTE EOSINOPHIL [2]: 48.83 CELLS/uL
ABSOLUTE LYMPHOCYTE [2]: 14562 CELLS/uL
ABSOLUTE MONOCYTE [2]: 138.67 CELLS/uL
ABSOLUTE SEGMENTED NEUTROPHIL [2]: 1733.83 CELLS/uL
BASOPHIL [2]: 0%
EOSINOPHIL [2]: 0.33%
ERYTHROCYTE COUNT [2]: 5.89 x10E6/uL
HEMATOCRIT [2]: 36.7%
HEMOGLOBIN [2]: 14.42 G/DL
LEUKOCYTE COUNT [2]: 16.48 x10E3/uL
LYMPHOCYTE [2]: 88.83%
MEAN CORPUSCULAR HEMOGLOBIN [2]: 24.52 pg
MEAN CORPUSCULAR HEMOGLOBIN CONCENTRATION [2]: 39.3 G/DL
MEAN CORPUSCULAR VOLUME [2]: 62.37 fL
MONOCYTE [2]: 0.67%
NEUTROPHIL [2]: 10.17%
NUCLEATED RED BLOOD CELLS [2]: 0 /100WBC
PLATELET COUNT [2]: 1076.5 x10E3/uL
ALANINE AMINOTRANSFERASE [2]: 44.67 u/L
ALBUMIN [2]: 4.23 G/DL
ALKALINE PHOSPHATASE [2]: 357.33 u/L
ASPARTATE AMINOTRANSFERASE [2]: 84.83 u/L
BLOOD UREA NITROGEN [2]: 15.5 mg/dL
CARBON DIOXIDE [2]: 27 mmol/L
CHLORIDE [2]: 99.5 MEQ/L
CHOLESTEROL [2]: 63.67 mg/dL
CREATINE PHOSPHOKINASE [2]: 331.33 u/L
CREATININE [2]: 0.18 mg/dL
GLUCOSE [2]: 167.33 mg/dL
LACTATE DEHYDROGENASE [2]: 320.17 u/L
LIPASE [2]: 9.17 u/L
PHOSPHORUS [2]: 12.05 mg/dL
POTASSIUM [2]: 6.54 MEQ/L
SODIUM [2]: 143.02 MEQ/L
TOTAL BILIRUBIN [2]: 0.2 mg/dL
TOTAL PROTEIN [2]: 6.23 G/DL
URIC ACID [2]: 2.07 mg/dL
ABSOLUTE BASOPHIL [3]: 0 CELLS/uL
ABSOLUTE EOSINOPHIL [3]: 0 CELLS/uL
ABSOLUTE LYMPHOCYTE [3]: 12492.33 CELLS/uL
ABSOLUTE MONOCYTE [3]: 142.67 CELLS/uL
ABSOLUTE SEGMENTED NEUTROPHIL [3]: 1631.67 CELLS/uL
BASOPHIL [3]: 0%
EOSINOPHIL [3]: 0%
ERYTHROCYTE COUNT [3]: 5.71 x10E6/uL
HEMATOCRIT [3]: 37.53%
HEMOGLOBIN [3]: 14.67 G/DL
LEUKOCYTE COUNT [3]: 14.27 x10E3/uL
LYMPHOCYTE [3]: 87.67%
MEAN CORPUSCULAR HEMOGLOBIN [3]: 25.73 pg
MEAN CORPUSCULAR HEMOGLOBIN CONCENTRATION [3]: 39.1 G/DL
MEAN CORPUSCULAR VOLUME [3]: 65.8 fL
MONOCYTE [3]: 1%
NEUTROPHIL [3]: 11.33%
NUCLEATED RED BLOOD CELLS [3]: 0 /100WBC
PLATELET COUNT [3]: 1015.67 x10E3/uL
ALANINE AMINOTRANSFERASE [3]: 70.67 u/L
ALBUMIN [3]: 4.47 G/DL
ALKALINE PHOSPHATASE [3]: 482 u/L
ASPARTATE AMINOTRANSFERASE [3]: 112.67 u/L
BLOOD UREA NITROGEN [3]: 16.67 mg/dL
CARBON DIOXIDE [3]: 27.33 mmol/L
CHLORIDE [3]: 102.33 MEQ/L
CHOLESTEROL [3]: 82.67 mg/dL
CREATINE PHOSPHOKINASE [3]: 554 u/L
CREATININE [3]: 0.22 mg/dL
GLUCOSE [3]: 148 mg/dL
LACTATE DEHYDROGENASE [3]: 194.33 u/L
LIPASE [3]: 10 u/L
PHOSPHORUS [3]: 11.97 mg/dL
POTASSIUM [3]: 7.02 MEQ/L
SODIUM [3]: 145.3 MEQ/L
TOTAL BILIRUBIN [3]: 0.23 mg/dL
TOTAL PROTEIN [3]: 5.97 G/DL
URIC ACID [3]: 1.67 mg/dL
